Our source for the cytotoxicity values is ChEMBL document CHEMBL3507680, “University of Dundee, Gates Library screen for HepG2 cell viability”.

The data set can be described thus: Human HepG2 cell viability assay in 384 well format. Format: toxicity, cell-based. Also on record: dose 125 nL, time 70.5 hour; concentration not given beside the values. The conditions noted are these: HepG2 cells, read-out: Inhibition.
Turning to `O=C(Nc1ccccc1-c1cccs1)N1CCN(CC(F)F)CC1`, the cytotoxicity at 70.5 h is -11.6%.
The same measure for `Cc1cccc(C)c1CNC1(CCO)CCOCC1`: -16%.
With `O=C(Nc1ccccc1-c1cccs1)N1CCOCC1`, the cytotoxicity at 70.5 h is -13.2%.
Take `CCCN(CCC)S(=O)(=O)NCCc1cc(C)ccc1OC`: the cytotoxicity at 70.5 h is -8.2%.
With `CN(Cc1ccco1)C(=O)NCC(c1cccs1)N(C)C` (centres undefined), the cytotoxicity at 70.5 h is -11.2%.
For `CCN(Cc1ccco1)C(=O)NCC(c1cccs1)N(C)C` (centres undefined), the cytotoxicity at 70.5 h is 20.6%.
For the compound `CCc1ccc(CNc2ccccc2CN2CCC(O)CC2)o1`, the cytotoxicity at 70.5 h is -9.23%.
Consider `COc1cc(OC)cc(C2(O)CCN(Cc3ncc(C)o3)CC2)c1`, for which the cytotoxicity at 70.5 h worked out at 18.5%.
For `CC(C)c1nc2c(n1C)CCN(CCc1ccccn1)C2`, the cytotoxicity at 70.5 h was -4.15%.
As to `CCCS(=O)(=O)N1CCCC1c1cccc(N(C)C)c1` (centres undefined), the cytotoxicity at 70.5 h is -11.2%.
With `CCN(CC)C(=O)C1CCN(c2ccc(Cl)cc2C#N)CC1`, the cytotoxicity at 70.5 h stood at 10.1%.
Regarding `Cc1ccc(C2CSCCN2C(=O)c2ccnc(N(C)C)c2)o1` (centres undefined), the cytotoxicity at 70.5 h came to 18.6%.
With `N#Cc1ccc(CN2CCNC(=O)C2c2cccs2)cc1` (centres undefined), the cytotoxicity at 70.5 h is -3.15%.
Consider `CCCC(=O)N(C)c1cc(C#N)c2ccccc2n1`, for which the cytotoxicity at 70.5 h is -2.82%.
In the case of `CN(C(=O)CCc1nc(C2CC2)no1)c1cc(C#N)c2ccccc2n1`, the cytotoxicity at 70.5 h came out at 0.74%.
As to `Cc1ccc(C2CSCCN2C(=O)c2cccs2)o1` (centres undefined), the cytotoxicity at 70.5 h worked out at 19.9%.
Take `Cc1cc(F)ccc1S(=O)(=O)N1CCN(C)c2ccncc21`: the cytotoxicity at 70.5 h came out at 4.79%.
Then `O=C(NCC(CO)Cc1ccc(Cl)cc1)c1ccncc1F` (centres undefined), with -1.03%; and `CNC(=O)c1cc(C)ccc1NCc1cn2cc(C)ccc2n1`, with -2.87%; and `COCCNC(=O)N1CCCCC1CNC(=O)Nc1ccccc1` (centres undefined), with -3.88%.
Consider `OC(COCc1cccs1)Cn1cc(-n2cccc2)cn1` (centres undefined), for which the cytotoxicity at 70.5 h came out at 2.56%.
Then `CC(=O)Nc1cc2c(cc1C)OCO2`, with 21.5%.
Then `CC1c2cccn2CCN1C(=O)CCc1nc(C2CC2)no1` (centres undefined), with -8.57%; and `CC(=O)N1CCN(C(C)c2ccc(Br)cc2)CC1` (centres undefined), with -0.505%.
`COCCNC(=O)N1CCCC1COc1ccccc1` (centres undefined): the cytotoxicity at 70.5 h is -8.27%.
`CC(=O)N1CCSCC1c1ccc(C)o1` (centres undefined): the cytotoxicity at 70.5 h was -8.59%.
Regarding `OCCN1CCN(CCOCC(F)(F)F)CC1`, the cytotoxicity at 70.5 h amounted to 10.9%.
`Cc1cccc(CN(Cc2ccccn2)S(=O)(=O)N(C)C)c1`: the cytotoxicity at 70.5 h is 18.6%.
With `Fc1ccc(OCCNC2CCN(Cc3ccncc3)CC2)c(F)c1`, the cytotoxicity at 70.5 h was 12.1%.
As to `Cc1cc(NCc2ccc(S(N)(=O)=O)cc2)nc(C)n1`, the cytotoxicity at 70.5 h is -13.8%.
In the case of `Cc1nc(C(C)C)sc1C(=O)NCC(C)(C)N1CCOCC1`, the cytotoxicity at 70.5 h is -8.1%.
The same measure for `CC(C)C(Sc1nnc(NC2CC2)s1)C(=O)NCc1cccnc1` (centres undefined): -15.5%; for `CCNc1nnc(SC(C(=O)NCc2cccnc2)C(C)C)s1` (centres undefined): -14.3%; for `N#Cc1ccc(NC2CCN(CC(F)F)CC2)c(F)c1`: -15.5%.
Consider `N#Cc1ccc(NC2CCN(Cc3ccccn3)CC2)c(F)c1`, for which the cytotoxicity at 70.5 h was -9.28%.
As for `CC(C)C(Sc1cccs1)C(=O)NCc1cccnc1` (centres undefined), the cytotoxicity at 70.5 h was -14.6%.
On to `CSC(C)C(=O)NS(=O)(=O)c1ccc(F)c(C(F)(F)F)c1` (centres undefined), for which the cytotoxicity at 70.5 h is 22.2%.
Turning to `O=C(NCCc1nncn1C1CC1)c1cc2ccccn2c1`, the cytotoxicity at 70.5 h is -10.9%.
For `CC(C)(C)C(CCO)NC(=O)Nc1ccccc1` (centres undefined), the cytotoxicity at 70.5 h was -9.49%.
`COc1ccccc1CN(CC1CCCO1)C(=O)c1csnn1` (centres undefined): the cytotoxicity at 70.5 h is -12.2%.
Then `CCN(Cc1ccoc1)C(=O)C1CCN(C(=O)OC(C)(C)C)C1` (centres undefined), with 18.9%.
Turning to `Cc1nc(C2CN(Cc3ccc(F)cc3Br)CCO2)no1` (centres undefined), the cytotoxicity at 70.5 h was -5.56%.
The same measure for `CCOCCN1CCN(CCOCC(F)(F)F)CC1`: -8.54%; for `CCOCCN(C)C(=O)Nc1cccc2c1CCN(CC)C2`: 10.2%.
On to `CC(C)CC(NC(=O)CSc1ccc(F)c(Cl)c1)C(=O)O` (centres undefined), for which the cytotoxicity at 70.5 h is -18.4%.
In the case of `O=S(=O)(NCc1ccc(S(=O)(=O)N2CCCC2)s1)c1ccc(Cl)cc1`, the cytotoxicity at 70.5 h is -12.5%.
Turning to `O=S(=O)(NCc1ccc(S(=O)(=O)N2CCCC2)s1)c1ccc(Cl)c(Cl)c1`, the cytotoxicity at 70.5 h was -22.7%.
As to `NC(=O)CNC(=O)c1ccc(CNCc2ccc(F)cc2F)cc1`, the cytotoxicity at 70.5 h is -23.7%.
Turning to `NC(=O)CNC(=O)c1ccc(CNCc2ccc(Cl)cc2Cl)cc1`, the cytotoxicity at 70.5 h is -28%.
Then `CN(C(=O)Cn1nnnc1C(C)(C)C)c1ccccc1`, with -19.5%.
Then `Cn1c(CCN2CCN(c3ccc(O)cc3)CC2)nc2ccccc21`, with 14.6%.
For `CC(C)c1noc(OCc2cccc(C#N)c2)n1`, the cytotoxicity at 70.5 h is -11.8%.
Consider `CC(C)c1noc(OCc2cccc(S(=O)(=O)N(C)C)c2)n1`, for which the cytotoxicity at 70.5 h is -17.9%.
As for `O=C(NCCCc1nc(=O)[nH][nH]1)c1ccc(Cl)cn1`, the cytotoxicity at 70.5 h is -15.2%.
For `Cc1cccc2c1C(=O)NC1(CCOCC1)N2`, the cytotoxicity at 70.5 h was -13.5%.
The same measure for `O=S(=O)(Cc1ccc(F)c(Cl)c1)NCCOc1cccnc1`: 3.53%.
The same measure for `CCc1nc(CCNc2ccc(S(N)(=O)=O)cc2C#N)cs1`: -21%; for `CNS(=O)(=O)CCCN(C)Cc1cc(C)ccc1OC`: -13.2%; for `Cc1ccc(SC2CCCC2)c(C(=O)NCc2n[nH]c(=O)[nH]2)c1`: -11.2%.
In the case of `Fc1ccc(C(NCc2nnc(C3CC3)o2)C2CCC2)cc1` (centres undefined), the cytotoxicity at 70.5 h was -4.6%.
`COCC(=O)NC1(c2cccc(C(F)(F)F)c2)CCC1`: the cytotoxicity at 70.5 h was -14.5%.
Then `CN(CCN1CCOC1=O)CC(=O)Nc1ccc(Cl)c(Cl)c1`, with -20.1%; and `CC(CNC(=O)c1ccn(-c2ccc(F)cc2)n1)Cn1cccn1` (centres undefined), with -22.8%; and `Fc1ccc(C(NCc2nnc(-c3ccco3)o2)C2CCC2)cc1` (centres undefined), with -12%.
With `CO[C@H]1CN(C(=O)OC(C)(C)C)CC1NCc1ccco1` (some centres undefined), the cytotoxicity at 70.5 h was -24.9%.
In the case of `CO[C@H]1CN(C(=O)OC(C)(C)C)CC1NCc1ccoc1` (some centres undefined), the cytotoxicity at 70.5 h was -13.8%.
Turning to `CC1CCCN(C(=O)c2ncncc2Cl)C1` (centres undefined), the cytotoxicity at 70.5 h came out at 12.9%.
With `O=C(c1ccccc1)N1CCCN(C(=O)c2ncncc2Cl)CC1`, the cytotoxicity at 70.5 h was found to be 15.9%.
Consider `COCc1ccccc1C(=O)NCCCN1CCCC1C(=O)N(C)C` (centres undefined), for which the cytotoxicity at 70.5 h turned out to be 7.28%.
Turning to `COc1ncccc1C(=O)NCC1Cc2ccccc2O1` (centres undefined), the cytotoxicity at 70.5 h was -6.43%.
Regarding `O=C(NCCCn1nc2ccccn2c1=O)NC1CCC(O)CC1` (centres undefined), the cytotoxicity at 70.5 h turned out to be 9.94%.
Regarding `CC(C)S(=O)(=O)NCC1CCCN(C(=O)c2cccnc2)C1` (centres undefined), the cytotoxicity at 70.5 h was -7.06%.
In the case of `Cc1cccc(CNCc2c(C)nn(C)c2N2CCOCC2)n1`, the cytotoxicity at 70.5 h is -2.64%.
For `O=C(CCc1nccs1)N1CCCC(N2CCNC2=O)C1` (centres undefined), the cytotoxicity at 70.5 h is 0.762%.
Then `Cc1cc(N2CCC(N(C)C(=O)c3ccccc3)CC2)nc(C)n1`, with -0.672%.
Regarding `CN(C)C(CNC(=O)c1cccc(-n2cnnn2)c1)c1ccccc1Cl` (centres undefined), the cytotoxicity at 70.5 h is -2.81%.
As to `Cc1csc(N2CCN(Cc3cnc(C)s3)CC2C)n1` (centres undefined), the cytotoxicity at 70.5 h is -2.09%.
Take `CCc1ccc(C(=O)Nc2ccc(CC3CC(=O)NC3=O)cc2)cc1` (centres undefined): the cytotoxicity at 70.5 h came out at 1.34%.
`CCCC(C)(C)NC(=O)c1ccc(CC2CC(=O)NC2=O)cc1` (centres undefined): the cytotoxicity at 70.5 h is 0.713%.
As to `Cc1cn(-c2ccccc2)nc1NS(=O)(=O)c1cccc(C(=O)O)c1`, the cytotoxicity at 70.5 h was -1.1%.
Consider `CC1CN(C)c2ccccc2CN1C(=O)CSc1ccncc1` (centres undefined), for which the cytotoxicity at 70.5 h turned out to be 1.51%.
The same measure for `CCN1CCCC1CN(CCN(C)C)S(=O)(=O)c1ccc(C#N)cc1` (centres undefined): 2.57%.
As for `CCN(Cc1cccnc1)CC1CCCO1` (centres undefined), the cytotoxicity at 70.5 h is -0.83%.
`Cc1cnn(CC2CN(CCc3ccncc3)CCO2)c1` (centres undefined): the cytotoxicity at 70.5 h was 0.973%.
Turning to `Cc1nc(C)n(CC2CN(CCc3ccncc3)CCO2)n1` (centres undefined), the cytotoxicity at 70.5 h is -0.163%.
`C1CCCN(c2nc(C3CC3)ns2)CC1`: the cytotoxicity at 70.5 h came out at 15.3%.
For `CCc1nc(C2CCCN2CC(=O)Nc2c(C)nn(C)c2C)no1` (centres undefined), the cytotoxicity at 70.5 h is -3.18%.
Take `Cc1nc(C)n(CC2CCCN2CC(=O)NCc2ccco2)n1` (centres undefined): the cytotoxicity at 70.5 h is -2.21%.
`Cc1n[nH]c(C)c1C1COCCN1C(=O)Cc1cccc(F)c1` (centres undefined): the cytotoxicity at 70.5 h was -4.4%.
Take `Cc1n[nH]c(C)c1C1CCCN1C(=O)NCCSC(C)(C)C` (centres undefined): the cytotoxicity at 70.5 h was -7.87%.
On to `Cc1csc(N2CCN(CCc3ccccn3)CC2C)n1` (centres undefined), for which the cytotoxicity at 70.5 h was -10.7%.
On to `CCCN1CCN(Cc2nccn2CC)C(C)C1` (centres undefined), for which the cytotoxicity at 70.5 h came to 19.6%.
`O=C(C1CCC1)N1CCCC1c1nnc2n1CCCCC2` (centres undefined): the cytotoxicity at 70.5 h worked out at 9.95%.
As for `O=C(NCCCOCC1CCCO1)c1cccnc1N1CCCC1` (centres undefined), the cytotoxicity at 70.5 h turned out to be 1.79%.
As to `Cc1cccc(N2CCN(CCNC(=O)c3ccnn3C)CC2)c1`, the cytotoxicity at 70.5 h is -9.52%.
Take `CCN(CC)C(CNC(=O)c1ccc(S(C)(=O)=O)cc1)c1ccco1` (centres undefined): the cytotoxicity at 70.5 h was -0.309%.
As to `Cc1nc(C)c(C(=O)N2CCCC2c2nnc3n2CCCCC3)s1` (centres undefined), the cytotoxicity at 70.5 h was -8.07%.
On to `c1cnn(CC2CN(c3ncnc4ccsc34)CCO2)c1` (centres undefined), for which the cytotoxicity at 70.5 h was -0.0557%.
On to `COc1cccc(CN2CCOC(Cn3nc(C)cc3C)C2)c1` (centres undefined), for which the cytotoxicity at 70.5 h was -6.54%.
Regarding `c1cnn(CC2CN(c3ncnc4sccc34)CCO2)c1` (centres undefined), the cytotoxicity at 70.5 h is -4.77%.
Then `Cc1cnn(CC2CN(c3ncnc4ccsc34)CCO2)c1` (centres undefined), with 16%.
Turning to `CC(C)n1cc(CN2CCCN(C(=O)c3ccc[nH]3)CC2)cn1`, the cytotoxicity at 70.5 h is -5.05%.
For the compound `O=C(CC1CN(Cc2ccccc2)CCO1)Nc1ccccc1F` (centres undefined), the cytotoxicity at 70.5 h is -3.6%.
As for `CNc1cc(N2CCCC2CNCc2c[nH]nc2C(C)(C)C)ncn1` (centres undefined), the cytotoxicity at 70.5 h amounted to 0.0673%.
